target: human TrkA receptor (Homo sapiens (Human), UniProt P04629); assay: DiscoverX PathHunter TrkA functional assay (NGF-stimulated U2OS cells); type: cell-based; conditions: U2OS cells expressing human TrkA-PK, Shc1-EA and p75NTR; compound 1 h, then NGF at ~80% of maximal response for 3 h; luminescence
Sequence (P04629 33-796): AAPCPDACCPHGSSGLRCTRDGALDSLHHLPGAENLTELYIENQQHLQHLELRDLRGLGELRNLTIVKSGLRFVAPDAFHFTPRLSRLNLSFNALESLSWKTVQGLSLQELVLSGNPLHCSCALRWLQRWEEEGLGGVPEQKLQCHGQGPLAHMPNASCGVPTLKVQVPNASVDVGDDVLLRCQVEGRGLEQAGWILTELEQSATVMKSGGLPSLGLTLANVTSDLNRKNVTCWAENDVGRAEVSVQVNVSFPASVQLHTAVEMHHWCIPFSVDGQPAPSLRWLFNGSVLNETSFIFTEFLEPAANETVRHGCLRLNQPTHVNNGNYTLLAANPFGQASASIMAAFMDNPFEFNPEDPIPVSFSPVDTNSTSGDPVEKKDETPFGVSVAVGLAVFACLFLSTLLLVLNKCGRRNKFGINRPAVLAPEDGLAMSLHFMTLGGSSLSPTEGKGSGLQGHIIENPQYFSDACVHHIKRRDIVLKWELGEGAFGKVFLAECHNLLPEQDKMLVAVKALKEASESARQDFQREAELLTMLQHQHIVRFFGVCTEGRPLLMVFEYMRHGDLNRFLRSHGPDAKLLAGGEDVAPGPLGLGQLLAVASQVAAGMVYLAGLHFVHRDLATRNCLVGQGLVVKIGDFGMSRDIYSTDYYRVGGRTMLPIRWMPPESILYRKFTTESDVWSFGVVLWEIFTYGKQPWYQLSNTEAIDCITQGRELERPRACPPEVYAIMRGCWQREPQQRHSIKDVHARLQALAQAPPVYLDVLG
Experimental: TrkA functional activity was measured using a DiscoverX PathHunter assay. In this assay, U2OS cells express the human TrkA receptor as a fusion with the weakly complementing fragment of B-galactosidase, which DiscoverX calls “Prolink (PK)”; additionally, Shcl is fused with a larger fragment, which is called “Enzyme Acceptor (EA)”. Activation of the TrkA receptor, upon NGF addition, results in the kinase domain being phosphorylated, resulting in subsequent recruitment of Shcl-EA protein. That recruitment results in an active B-galactosidase enzyme that is detected by addition of a chemiluminescent substrate. The human p75^NTR protein was also expressed as a co-receptor for NGF.
All reagents were purchased from DiscoverX, except for the receptor agonists (NGF, BDNF, NT3) which were purchased from Peprotech. Cells were expanded and frozen into cryovials, and stored in the vapor phase of liquid nitrogen, and thawed immediately before use. Thawed cells were added to a 384-well plate at 7500 cells/well, and allowed to incubate overnight. Compound at various concentrations was added the following morning and allowed to incubate on cells for 1 h. Then, NGF was added at a concentration sufficient to elicit ˜80% of a maximal response and allowed to incubate for 3 h at ambient temperature. DiscoverX PathHunter detection reagent was then added and the plate was further incubated for 1 h in the dark. The plate was then read via luminescence on the Perkin Elmer Envision.

First: NCc1ncc(NC(=O)c2ccc(C(F)(F)F)c(-c3ccn(C(F)F)n3)c2)c(-c2ccccc2)n1 [Example 43]
Second: Cc1ccn(-c2cc(C(=O)Nc3cnc(C)nc3-c3ccccc3)ccc2C(F)(F)F)n1 [Example 17, N-(2-methyl-4-phenylpyrimidin-5-yl)-3-(3-methyl-1H-pyrazol-1-yl)-4-(trifluoromethyl)benzamide]
The IC50 of the first is 3.7-fold higher: 55 nM for the first, 15 nM for the second. The second is the more potent here.

Going from `Cc1nc(C)c(NC(=O)c2ccc(C(F)(F)F)c(-c3ccn(C)n3)c2)c(-c2ccccc2)n1` [Example 26, N-(2,4-dimethyl-6-phenylpyrimidin-5-yl)-3-(1-methyl-1H-pyrazol-3-yl)-4-(trifluoromethyl)benzamide] to `Cn1ccc(-c2cc(C(=O)Nc3ncccc3-c3ccccc3)ccc2C(F)(F)F)n1` [Example 22, 3-(1-methyl-1H-pyrazol-3-yl)-N-(3-phenylpyridin-2-yl)-4-(trifluoromethyl)benzamide], the IC50 falls from 210 nM to 64 nM (3.3-fold). The second is the more potent here.

Going from `Cn1ccc(-c2cc(C(=O)Nc3cc(C(N)=O)nnc3-c3ccccc3)c(F)cc2C(F)(F)F)n1` [Example 94, 5-(2-fluoro-5-(1-methyl-1H-pyrazol-3-yl)-4-(trifluoromethyl)benzamido)-6-phenylpyridazine-3-carboxamide] to `Cn1ccc(-c2cc(C(=O)Nc3cnc(CNC(N)=O)nc3-c3ccccc3)c(F)cc2C(F)(F)F)n1` [Example 76, 2-Fluoro-5-(1-methyl-1H-pyrazol-3-yl)-N-(4-phenyl-2-(ureidomethyl)pyrimidin-5-yl)-4-(trifluoromethyl)benzamide], the IC50 falls from 9.3 nM to 0.84 nM (11-fold).

`Cn1ccc(-c2cc(C(=O)Nc3cnc(CC(=O)NCCO)nc3-c3ccccc3)c(F)cc2C(F)(F)F)n1` [Example 108, 2-fluoro-N-(2-(2-((2-hydroxyethyl)amino)-2-oxoethyl)-4-phenylpyrimidin-5-yl)-5-(1-methyl-1H-pyrazol-3-yl)-4-(trifluoromethyl)benzamide] and `Cn1ccc(-c2cc(C(=O)Nc3cnc(CC(=O)O)nc3-c3ccccc3)c(F)cc2C(F)(F)F)n1` [Example 106, 2-(5-(2-fluoro-5-(1-methyl-1H-pyrazol-3-yl)-4-(trifluoromethyl)benzamido)-4-phenylpyrimidin-2-yl)acetic acid] are within 1.5-fold of each other in IC50: 1.5 nM for the first, 2 nM for the second.

Going from `C[C@H](O)C(=O)NCc1ccc(NC(=O)c2cc(-c3ccn(C)n3)c(C(F)(F)F)cc2F)c(-c2ccccc2)n1` [Example 56, (S)-2-fluoro-N-(6-((2-hydroxypropanamido)methyl)-2-phenylpyridin-3-yl)-5-(1-methyl-1H-pyrazol-3-yl)-4-(trifluoromethyl)benzamide] to `CNS(=O)(=O)Cc1ccc(NC(=O)c2cc(-c3ccn(C)n3)c(C(F)(F)F)cc2F)c(-c2ccccc2)n1` [Example 200, 2-fluoro-5-(1-methyl-1H-pyrazol-3-yl)-N-(6-((N-methylsulfamoyl)methyl)-2-phenylpyridin-3-yl)-4-(trifluoromethyl)benzamide], the IC50 rises from 0.45 nM to 4.4 nM (9.8-fold). The first is the more potent here.

`Cn1ccc(-c2cc(C(=O)Nc3cnc(CC(=O)N4CCNCC4)nc3-c3ccccc3)c(F)cc2C(F)(F)F)n1` [Example 114, 2-fluoro-5-(1-methyl-1H-pyrazol-3-yl)-N-(2-(2-oxo-2-(piperazin-1-yl)ethyl)-4-phenylpyrimidin-5-yl)-4-(trifluoromethyl)benzamide] and `CCN(C)C(=O)Cc1ncc(NC(=O)c2cc(-c3ccn(C)n3)c(C(F)(F)F)cc2F)c(-c2ccccc2)n1` [Example 115, N-(2-(2-(ethyl(methyl)amino)-2-oxoethyl)-4-phenylpyrimidin-5-yl)-2-fluoro-5-(1-methyl-1H-pyrazol-3-yl)-4-(trifluoromethyl)benzamide] are within 1.5-fold of each other in IC50: 3 nM for the first, 2.6 nM for the second.

First: Cn1ccc(-c2cc(C(=O)Nc3cnc4c(c3-c3ccccc3)CCN(C(=O)CO)C4)ccc2C(F)(F)F)n1 [Example 143, N-(7-(2-Hydroxyacetyl)-4-phenyl-5,6,7,8-tetrahydro-1,7-naphthyridin-3-yl)-3-(1-methyl-1H-pyrazol-3-yl)-4-(trifluoromethyl)benzamide]
Second: Cn1ccc(-c2cc(C(=O)Nc3cnc4c(c3-c3ccccc3)CCNC4=O)ccc2C(F)(F)F)n1 [Example 159, 3-(1-methyl-1H-pyrazol-3-yl)-N-(8-oxo-4-phenyl-5,6,7,8-tetrahydro-1,7-naphthyridin-3-yl)-4-(trifluoromethyl)benzamide]
The IC50 of the first is 14-fold lower: 19 nM for the first, 260 nM for the second. The first is the more potent here.

Going from `Cn1ccc(-c2cc(C(=O)Nc3cc(-c4ccc(C(N)=O)cn4)cnc3-c3ccccc3)c(F)cc2C(F)(F)F)n1` [Example 164, 5′-(2-Fluoro-5-(1-methyl-1H-pyrazol-3-yl)-4-(trifluoromethyl)benzamido)-6′-phenyl-[2,3′-bipyridine]-5-carboxamide] to `CN(C)C(=O)c1cnc(-c2ccccc2)c(NC(=O)c2cc(-c3ccn(C)n3)c(C(F)(F)F)cc2F)c1` [Example 82, 5-(2-Fluoro-5-(1-methyl-1H-pyrazol-3-yl)-4-(trifluoromethyl)benzamido)-N,N-dimethyl-6-phenylnicotinamide], the IC50 rises from 0.51 nM to 11 nM (22-fold).

Going from `COCC(=O)NCc1ncc(NC(=O)c2cc(-c3ccn(C)n3)c(C(F)(F)F)cc2F)c(-c2ccccc2)n1` [Example 64, 2-fluoro-N-(2-((2-methoxyacetamido)methyl)-4-phenylpyrimidin-5-yl)-5-(1-methyl-1H-pyrazol-3-yl)-4-(trifluoromethyl)benzamide] to `Cn1ccc(-c2cc(C(=O)Nc3cnc(Cn4cn[nH]c4=O)nc3-c3ccccc3)c(F)cc2C(F)(F)F)n1` [Example 227, 2-fluoro-5-(1-methyl-1H-pyrazol-3-yl)-N-(2-((5-oxo-1,5-dihydro-4H-1,2,4-triazol-4-yl)methyl)-4-phenylpyrimidin-5-yl)-4-(trifluoromethyl)benzamide], the IC50 falls from 0.44 nM to 0.24 nM (1.8-fold). The second is the more potent here.

Going from `O=C(Nc1cc2c(nc1-c1ccccc1)CN(C(=O)CO)C2)c1cc(-c2ncccn2)c(C(F)(F)F)cc1F` [Example 162, 2-fluoro-N-(6-(2-hydroxyacetyl)-2-phenyl-6,7-dihydro-5H-pyrrolo[3,4-b]pyridin-3-yl)-5-(pyrimidin-2-yl)-4-(trifluoromethyl)benzamide] to `Cn1ccc(-c2cc(C(=O)Nc3cc4c(nc3-c3ccccc3)CN(C(N)=O)CC4)c(F)cc2C(F)(F)F)n1` [Example 144, 3-(2-Fluoro-5-(1-methyl-1H-pyrazol-3-yl)-4-(trifluoromethyl)benzamido)-2-phenyl-5,6-dihydro-1,7-naphthyridine-7(8H)-carboxamide], the IC50 falls from 180 nM to 0.26 nM (690-fold).

Going from `Cn1ccc(-c2cc(C(=O)Nc3nc(CC(N)=O)ccc3-c3ccccc3)c(F)cc2C(F)(F)F)n1` [Example 205, N-(6-(2-Amino-2-oxoethyl)-3-phenylpyridin-2-yl)-2-fluoro-5-(1-methyl-1H-pyrazol-3-yl)-4-(trifluoromethyl)benzamide] to `Cn1ccc(-c2cc(C(=O)Nc3cc(S(C)(=N)=O)cnc3-c3ccccc3)c(F)cc2C(F)(F)F)n1` (stereo not shown) [Example 195, 2-fluoro-5-(1-methyl-1H-pyrazol-3-yl)-N-(5-(S-methylsulfonimidoyl)-2-phenylpyridin-3-yl)-4-(trifluoromethyl)benzamide], the IC50 falls from 8.4 nM to 2.8 nM (3-fold). The second is the more potent here.

Going from `Cc1ncc(NC(=O)c2cc(-c3ccn(C)n3)c(C(F)(F)F)cc2F)c(-c2ccccc2CCN(C)C)n1` [Example 135, N-(4-(2-(2-(Dimethylamino)ethyl)phenyl)-2-methylpyrimidin-5-yl)-2-fluoro-5-(1-methyl-1H-pyrazol-3-yl)-4-(trifluoromethyl)benzamide] to `Cc1ncc(NC(=O)c2cc(-c3ccn(C)n3)c(C(F)(F)F)cc2Cl)c(-c2ccccc2)n1` [Example 23, 2-chloro-N-(2-methyl-4-phenylpyrimidin-5-yl)-5-(1-methyl-1H-pyrazol-3-yl)-4-(trifluoromethyl)benzamide], the IC50 rises from 0.57 nM to 1.1 nM (1.9-fold).

Compared with `Cn1ccc(-c2cc(C(=O)Nc3cnc(CN4CCCCC4=O)nc3-c3ccccc3)c(F)cc2C(F)(F)F)n1` [Example 220, 2-fluoro-5-(1-methyl-1H-pyrazol-3-yl)-N-(2-((2-oxopiperidin-1-yl)methyl)-4-phenylpyrimidin-5-yl)-4-(trifluoromethyl)benzamide], `Cn1ccc(-c2cc(C(=O)Nc3cnc(CN4C(=O)CNC4=O)nc3-c3ccccc3)c(F)cc2C(F)(F)F)n1` [Example 96, N-(2-((2,5-dioxoimidazolidin-1-yl)methyl)-4-phenylpyrimidin-5-yl)-2-fluoro-5-(1-methyl-1H-pyrazol-3-yl)-4-(trifluoromethyl)benzamide] is 12-fold lower in IC50: 1 nM for the first, 0.083 nM for the second.

First: Cc1ncc(NC(=O)c2cc(C3CCC(C)O3)c(C(F)(F)F)cc2F)c(-c2ccccc2)n1 (stereo not shown) [Example 33, 2-fluoro-N-(2-methyl-4-phenylpyrimidin-5-yl)-5-(5-methyltetrahydrofuran-2-yl)-4-(trifluoromethyl)benzamide]
Second: Cc1ncc(NC(=O)c2cc(-c3ncccn3)c(Cl)cc2F)c(-c2ccccc2)n1 [Example 2, 4-Chloro-2-fluoro-N-(2-methyl-4-phenylpyrimidin-5-yl)-5-(pyrimidin-2-yl)benzamide]
The IC50 of the first is 1.8-fold lower: 56 nM for the first, 100 nM for the second. The first is the more potent here.

Going from `C[C@H](O)CNC(=O)c1cnc(-c2ccccc2)c(NC(=O)c2cc(-c3ccn(C)n3)c(C(F)(F)F)cc2F)c1` [Example 84, (S)-5-(2-fluoro-5-(1-methyl-1H-pyrazol-3-yl)-4-(trifluoromethyl)benzamido)-N-(2-hydroxypropyl)-6-phenylnicotinamide] to `Cn1ccc(-c2cc(C(=O)Nc3ccc(CNC(=O)CO)nc3-c3ccccc3)ccc2C(F)(F)F)n1` [Example 53, N-(6-((2-hydroxyacetamido)methyl)-2-phenylpyridin-3-yl)-3-(1-methyl-1H-pyrazol-3-yl)-4-(trifluoromethyl)benzamide], the IC50 rises from 1.2 nM to 5.7 nM (4.8-fold). The first is the more potent here.

`O=C(Nc1cc(-c2csc(C3CC3)n2)cnc1N1CCC[C@@H]1CO)c1cc(-c2ncccn2)c(C(F)(F)F)cc1F` [Example 137, (R)—N-(5-(2-Cyclopropylthiazol-4-yl)-2-(2-(hydroxymethyl)pyrrolidin-1-yl)pyridin-3-yl)-2-fluoro-5-(pyrimidin-2-yl)-4-(trifluoromethyl)benzamide] gave an IC50 of 2.9 nM.

Source: patent publication US9815846B2 (Merck Sharp & Dohme Corp., priority 2014, dated 2017)
